According to paper PMC6979384, “Characterization of the plant homeodomain (PHD) reader family for their histone tail interactions” (Epigenetics & Chromatin, 2020):

Legend:
Assay in all cases: Histone peptide microarray
Format in all cases: binding, human
Settings in all cases: total n = 4
AIRE (PP) = tested on: AIRE (PP)
In short: (§1)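 Readout is array binding signal, reported as the mean and standard deviation over four replicates. Each purified GST-fused PHD domain was incubated at 0.5 μM with a library of 293 modified histone peptides.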

BAZ2B = tested on: BAZ2B
In short: as §1

BPTF (PB) = tested on: BPTF (PB)
In short: as §1

CHD4 (PPCC) = tested on: CHD4 (PPCC)
In short: as §1

CHD5 (PCC) = tested on: CHD5 (PCC)
In short: as §1

CHD5 (PPCC) = tested on: CHD5 (PPCC)
In short: as §1

DIDO1 = tested on: DIDO1
In short: as §1

DPF2 (PPC2W2) = tested on: DPF2 (PPC2W2)
In short: as §1

ING1 = tested on: ING1
In short: as §1

ING2 = tested on: ING2
In short: as §1

ING3 = tested on: ING3
In short: as §1

ING4 = tested on: ING4
In short: as §1

ING5 = tested on: ING5
In short: as §1

KDM4C (TTP) = tested on: KDM4C (TTP)
In short: as §1

KDM5A (1) = tested on: KDM5A (1)
In short: as §1

KDM5A (3) = tested on: KDM5A (3)
In short: as §1

KDM5B (1) = tested on: KDM5B (1)
In short: as §1

KDM5B (3) = tested on: KDM5B (3)
In short: as §1

KDM7A = tested on: KDM7A
In short: as §1

MLL5 = tested on: MLL5
In short: as §1

MORC3 (CW) = tested on: MORC3 (CW)
In short: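 GST-tagged PHD readers, 0.5 μM, probed on a microarray of 293 synthetic histone peptides carrying single or combinatorial PTMs (optimized Petell protocol). Signals are averaged over 4 replicates and expressed as relative binding.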

PHF13 = tested on: PHF13
In short: as §1

PHF21A = tested on: PHF21A
In short: as §1

PHF23 = tested on: PHF23
In short: as §1

PHF2 = tested on: PHF2
In short: as §1

PHF8 = tested on: PHF8
In short: as §1

PHRF1 (RP) = tested on: PHRF1 (RP)
In short: as §1

RAG2 = tested on: RAG2
In short: as §1

SP140L = tested on: SP140L
In short: as §1

TAF3 = tested on: TAF3
In short: as §1

TRIM66 (PB) = tested on: TRIM66 (PB)
In short: as §1

[1] = sheet "Array Heatmap", GST-tagged reader, histone peptide array

H3K14ac (1-32): H3 1-32 was tested, and the “Array Heatmap value (peptide array signal)” value (shortened to “Array Heatmap value”) (AIRE (PP); AIRE (PP), sheet "Array Heatmap", each array performed twice) was 0.6762, the “Array Heatmap value” value (BAZ2B; BAZ2B, sheet "Array Heatmap", each array performed twice) was 0.5612 and the “Array Heatmap value” value (BPTF (PB); BPTF (PB), sheet "Array Heatmap", each array performed twice) was 0.3702. The “Array Heatmap value” value (CHD4 (PPCC); CHD4 (PPCC), sheet "Array Heatmap", each array performed twice) was 0.5914, the “Array Heatmap value” value (CHD5 (PCC); CHD5 (PCC), sheet "Array Heatmap", each array performed twice) was 0.9008 and the “Array Heatmap value” value (CHD5 (PPCC); CHD5 (PPCC), sheet "Array Heatmap", each array performed twice) was 0.6129. The “Array Heatmap value” value (DIDO1; DIDO1, sheet "Array Heatmap", each array performed twice) was 0.6524, the “Array Heatmap value” value (DPF2 (PPC2W2); DPF2 (PPC2W2), sheet "Array Heatmap", each array performed twice) was 0.88 and the “Array Heatmap value” value (ING1; ING1, sheet "Array Heatmap", each array performed twice) was 0.5563. For the same substance, the “Array Heatmap value” value (ING2; ING2, sheet "Array Heatmap", each array performed twice) was 0.6065, the “Array Heatmap value” value (ING3; ING3, sheet "Array Heatmap", each array performed twice) was 0.5035 and the “Array Heatmap value” value (ING4; ING4, sheet "Array Heatmap", each array performed twice) was 0.5113. The “Array Heatmap value” value (ING5; ING5, sheet "Array Heatmap", each array performed twice) was 0.3965, the “Array Heatmap value” value (KDM4C (TTP); KDM4C (TTP), sheet "Array Heatmap", each array performed twice) was 0.5844 and the “Array Heatmap value” value (KDM5A (1); KDM5A (1), sheet "Array Heatmap", each array performed twice) was 0.5739. For the same substance, the “Array Heatmap value” value (KDM5A (3); KDM5A (3), sheet "Array Heatmap", each array performed twice) was 0.5824, the “Array Heatmap value” value (KDM5B (1); KDM5B (1), sheet "Array Heatmap", each array performed twice) was 0.7332 and the “Array Heatmap value” value (KDM5B (3); KDM5B (3), sheet "Array Heatmap", each array performed twice) was 0.5322. For the same substance, the “Array Heatmap value” value (KDM7A; KDM7A, sheet "Array Heatmap", each array performed twice) was 0.4771, the “Array Heatmap value” value (MLL5; MLL5, sheet "Array Heatmap", each array performed twice) was 0.5315 and the “Array Heatmap value” value (MORC3 (CW); MORC3 (CW), sheet "Array Heatmap", each array performed twice) was 0.4902. The “Array Heatmap value” value (PHF13; PHF13, sheet "Array Heatmap", each array performed twice) was 0.6445, the “Array Heatmap value” value (PHF21A; PHF21A, sheet "Array Heatmap", each array performed twice) was 0.5508 and the “Array Heatmap value” value (PHF23; PHF23, sheet "Array Heatmap", each array performed twice) was 0.5387. The “Array Heatmap value” value (PHF2; PHF2, sheet "Array Heatmap", each array performed twice) was 0.4742, the “Array Heatmap value” value (PHF8; PHF8, sheet "Array Heatmap", each array performed twice) was 0.4423 and the “Array Heatmap value” value (PHRF1 (RP); PHRF1 (RP), sheet "Array Heatmap", each array performed twice) was 0.5867. For the same substance, the “Array Heatmap value” value (RAG2; RAG2, sheet "Array Heatmap", each array performed twice) was 0.2609, the “Array Heatmap value” value (SP140L; SP140L, sheet "Array Heatmap", each array performed twice) was 0.4015 and the “Array Heatmap value” value (TAF3; TAF3, sheet "Array Heatmap", each array performed twice) was 0.3178. For the same substance, the “Array Heatmap value” value (TRIM66 (PB); TRIM66 (PB), sheet "Array Heatmap", each array performed twice) was 0.5901.

With H3K14ac + K18ac: H3 1-20 the “Array Heatmap signal (histone peptide microarray)” value (AIRE (PP); GST-tagged AIRE (PP), sheet Array Heatmap, each array performed twice) was 1, the “Array Heatmap signal (histone peptide microarray)” value (BAZ2B; GST-tagged BAZ2B, sheet Array Heatmap, each array performed twice) was 0.8123 and the “Array Heatmap signal (histone peptide microarray)” value (BPTF (PB); GST-tagged BPTF (PB = PHD + Bromodomain), sheet Array Heatmap, each array performed twice) was 0.357. The “Array Heatmap signal (histone peptide microarray)” value (CHD4 (PPCC); GST-tagged CHD4 (PPCC = Dual PHD + Dual Chromodomain), sheet Array Heatmap, each array performed twice) was 0.581, the “Array Heatmap signal (histone peptide microarray)” value (CHD5 (PCC); GST-tagged CHD5 (PCC = PHD + Dual Chromodomain), sheet Array Heatmap, each array performed twice) was 0.8723 and the “Array Heatmap signal (histone peptide microarray)” value (CHD5 (PPCC); GST-tagged CHD5 (PPCC = Dual PHD + Dual Chromodomain), sheet Array Heatmap, each array performed twice) was 0.5768. For the same substance, the “Array Heatmap signal (histone peptide microarray)” value (DIDO1; GST-tagged DIDO1, sheet Array Heatmap, each array performed twice) was 0.658, the “Array Heatmap signal (histone peptide microarray)” value (DPF2 (PPC2W2); GST-tagged DPF2 (PPC2W2 = Dual PHD + C2W2-type Zn-finger), sheet Array Heatmap, each array performed twice) was 0.9185 and the “Array Heatmap signal (histone peptide microarray)” value (ING1; GST-tagged ING1, sheet Array Heatmap, each array performed twice) was 0.5141. The “Array Heatmap signal (histone peptide microarray)” value (ING2; GST-tagged ING2, sheet Array Heatmap, each array performed twice) was 0.6014, the “Array Heatmap signal (histone peptide microarray)” value (ING3; GST-tagged ING3, sheet Array Heatmap, each array performed twice) was 0.4502 and the “Array Heatmap signal (histone peptide microarray)” value (ING4; GST-tagged ING4, sheet Array Heatmap, each array performed twice) was 0.4542. For the same substance, the “Array Heatmap signal (histone peptide microarray)” value (ING5; GST-tagged ING5, sheet Array Heatmap, each array performed twice) was 0.355, the “Array Heatmap signal (histone peptide microarray)” value (KDM4C (TTP); GST-tagged KDM4C (TTP = Tandem Tudor domain + PHD), sheet Array Heatmap, each array performed twice) was 0.5291 and the “Array Heatmap signal (histone peptide microarray)” value (KDM5A (1); GST-tagged KDM5A (1), sheet Array Heatmap, each array performed twice) was 0.555. The “Array Heatmap signal (histone peptide microarray)” value (KDM5A (3); GST-tagged KDM5A (3), sheet Array Heatmap, each array performed twice) was 0.6717, the “Array Heatmap signal (histone peptide microarray)” value (KDM5B (1); GST-tagged KDM5B (1), sheet Array Heatmap, each array performed twice) was 0.7675 and the “Array Heatmap signal (histone peptide microarray)” value (KDM5B (3); GST-tagged KDM5B (3), sheet Array Heatmap, each array performed twice) was 0.6502. The “Array Heatmap signal (histone peptide microarray)” value (KDM7A; GST-tagged KDM7A, sheet Array Heatmap, each array performed twice) was 0.4239, the “Array Heatmap signal (histone peptide microarray)” value (MLL5; GST-tagged MLL5, sheet Array Heatmap, each array performed twice) was 0.5196 and the “Array Heatmap signal (histone peptide microarray)” value (MORC3 (CW); GST-tagged MORC3 (CW = CW-type Zn-finger), sheet Array Heatmap, each array performed twice) was 0.487. The “Array Heatmap signal (histone peptide microarray)” value (PHF13; GST-tagged PHF13, sheet Array Heatmap, each array performed twice) was 0.5985, the “Array Heatmap signal (histone peptide microarray)” value (PHF21A; GST-tagged PHF21A, sheet Array Heatmap, each array performed twice) was 0.5152 and the “Array Heatmap signal (histone peptide microarray)” value (PHF23; GST-tagged PHF23, sheet Array Heatmap, each array performed twice) was 0.5075. For the same substance, the “Array Heatmap signal (histone peptide microarray)” value (PHF2; GST-tagged PHF2, sheet Array Heatmap, each array performed twice) was 0.4774, the “Array Heatmap signal (histone peptide microarray)” value (PHF8; GST-tagged PHF8, sheet Array Heatmap, each array performed twice) was 0.3925 and the “Array Heatmap signal (histone peptide microarray)” value (PHRF1 (RP); GST-tagged PHRF1 (RP), sheet Array Heatmap, each array performed twice) was 0.8706. The “Array Heatmap signal (histone peptide microarray)” value (RAG2; GST-tagged RAG2, sheet Array Heatmap, each array performed twice) was 0.2663, the “Array Heatmap signal (histone peptide microarray)” value (SP140L; GST-tagged SP140L, sheet Array Heatmap, each array performed twice) was 0.4262 and the “Array Heatmap signal (histone peptide microarray)” value (TAF3; GST-tagged TAF3, sheet Array Heatmap, each array performed twice) was 0.337. The “Array Heatmap signal (histone peptide microarray)” value (TRIM66 (PB); GST-tagged TRIM66 (PB = PHD + Bromodomain), sheet Array Heatmap, each array performed twice) was 0.934.

For H3K14me2: H3 1-20 [Peptide H3K14me2], the “Array Heatmap signal, AIRE (PP)” value (AIRE (PP); [1]) was 0.5905, the “Array Heatmap signal, BAZ2B” value (BAZ2B; [1]) was 0.5017 and the “Array Heatmap signal, BPTF (PB)” value (BPTF (PB); [1]) was 0.3583. The “Array Heatmap signal, CHD4 (PPCC)” value (CHD4 (PPCC); [1]) was 0.6389, the “Array Heatmap signal, CHD5 (PCC)” value (CHD5 (PCC); [1]) was 0.8497 and the “Array Heatmap signal, CHD5 (PPCC)” value (CHD5 (PPCC); [1]) was 0.5851. For the same substance, the “Array Heatmap signal, DIDO1” value (DIDO1; [1]) was 0.7549, the “Array Heatmap signal, DPF2 (PPC2W2)” value (DPF2 (PPC2W2); [1]) was 0.7618 and the “Array Heatmap signal, ING1” value (ING1; [1]) was 0.5677. The “Array Heatmap signal, ING2” value (ING2; [1]) was 0.6018, the “Array Heatmap signal, ING3” value (ING3; [1]) was 0.5043 and the “Array Heatmap signal, ING4” value (ING4; [1]) was 0.4752. The “Array Heatmap signal, ING5” value (ING5; [1]) was 0.3792, the “Array Heatmap signal, KDM4C (TTP)” value (KDM4C (TTP); [1]) was 0.5414 and the “Array Heatmap signal, KDM5A (1)” value (KDM5A (1); [1]) was 0.5072. For the same substance, the “Array Heatmap signal, KDM5A (3)” value (KDM5A (3); [1]) was 0.5469, the “Array Heatmap signal, KDM5B (1)” value (KDM5B (1); [1]) was 0.6811 and the “Array Heatmap signal, KDM5B (3)” value (KDM5B (3); [1]) was 0.5212. The “Array Heatmap signal, KDM7A” value (KDM7A; [1]) was 0.4126, the “Array Heatmap signal, MLL5” value (MLL5; [1]) was 0.5639 and the “Array Heatmap signal, MORC3 (CW)” value (MORC3 (CW); [1]) was 0.4726. For the same substance, the “Array Heatmap signal, PHF13” value (PHF13; [1]) was 0.6476, the “Array Heatmap signal, PHF21A” value (PHF21A; [1]) was 0.4799 and the “Array Heatmap signal, PHF23” value (PHF23; [1]) was 0.5616. The “Array Heatmap signal, PHF2” value (PHF2; [1]) was 0.4838, the “Array Heatmap signal, PHF8” value (PHF8; [1]) was 0.3636 and the “Array Heatmap signal, PHRF1 (RP)” value (PHRF1 (RP); [1]) was 0.7403. For the same substance, the “Array Heatmap signal, RAG2” value (RAG2; [1]) was 0.2574, the “Array Heatmap signal, SP140L” value (SP140L; [1]) was 0.3561 and the “Array Heatmap signal, TAF3” value (TAF3; [1]) was 0.2982. For the same substance, the “Array Heatmap signal, TRIM66 (PB)” value (TRIM66 (PB); [1]) was 0.6527.
